Measured values as given in US9072778B2, “Treatment regimen for N-MYC, c-MYC, and L-MYC amplified and overexpressed tumors” (UNIVERSITY OF HAWAII, priority 2005, dated 2015).

How the values were obtained:
[1] = SAM486A, Phase II, relapsed or refractory non-Hodgkin's lymphoma; cited from earlier work
[2] = tested on: human ovarian cancer cells (SKOV-3); assay: Growth, proliferation and morphology of ovarian cancer cells; format: cell-based; conditions: DFMO or SAM486A
Excerpt: (Bachmann, A S, (2004) Hawaii Med. Journal, 63:371-373, which is incorporated herein by reference in its entirety). […] Micrographs were taken using an inverted phase contrast microscope (Nikon). In comparison with the ovarian cancer cells SKOV-3, the growth and proliferation of NB cells LAN-1 was inhibited much more drastically and caused significant morphological changes after only 3 days of treatment.
Similar effects were already apparent after 1-2 days (not shown). By comparison, the treatment of human melanoma cells (MALME-3) with polyamine inhibitors required more extensive incubation times (8-12 days) and led to less obvious rearrangements in cell structures (Kramer et al., (2001). Cancer Res, 61, 7754-62, which is incorporate herein by reference in its entirety).

LAN-1 cells = assay: Cell growth and proliferation (cell number) and morphology, LAN-1; format: cell-based, human; conditions: LAN-1, 3 days; 5 mM DFMO, 10 μM SAM486A
Procedure: (§1) Cell numbers are expressed as percentage (%) of control cell growth and proliferation. Each sample was measured in duplicate and the data represent the mean of three separate determinations±SD. The observed growth and proliferation inhibition of LAN-1 and NMB-7 cells was accompanied by dramatic alterations in cell morphology (FIG. 4b). […] On day 3, both untreated and treated cells were washed free of inhibitor by washing twice with PBS, reseeded in new medium (NM) (solid black arrow) without inhibitors at the starting cell density (dashed black arrow) and the experiment was continued for an additional 7 days. While the untreated LAN-1 and NMB-7 cells grew normally and reached similar cell densities after an additional 3 days (day 6 of the experiment), the initially treated LAN-1 and NMB-7 cells resumed proliferation only slowly and reached about 30% and 58% of control cell growth and proliferation, respectively, on day 10 of the experiment (FIG. 6). Cell numbers were determined using a hemocytometer and trypan blue reagent, and each data point is representative of three separate determinations±SD. […] (not shown). Human NB cell lines were provided by Dr. Robert Seeger (LAN-1; University of California, Los Angeles, Calif.), Dr. Nai-Kong Cheung (NMB-7; Memorial Sloan-Kettering Cancer Center, NY), and the American Type Culture Collection (SK-N-SH; ATCC, Manassas, Va.). […]

NMB-7 cells = assay: Cell growth and proliferation (cell number) and morphology, NMB-7; format: cell-based, human; conditions: NMB-7, 3 days; 5 mM DFMO, 10 μM SAM486A
Procedure: as §1

ODC = biological target: T1, ODC (Homo sapiens, UniProt P11926); assay: ODC activity after preincubation of cell extracts with DFMO; format: biochemical; conditions: extracts from untreated or DFMO-treated LAN-1 cells, 100 μM DFMO, 30 min at 37° C.
T1 construct: enzyme activities were measured in cell lysates; endogenous in cells
T1 sequence (P11926 1-461): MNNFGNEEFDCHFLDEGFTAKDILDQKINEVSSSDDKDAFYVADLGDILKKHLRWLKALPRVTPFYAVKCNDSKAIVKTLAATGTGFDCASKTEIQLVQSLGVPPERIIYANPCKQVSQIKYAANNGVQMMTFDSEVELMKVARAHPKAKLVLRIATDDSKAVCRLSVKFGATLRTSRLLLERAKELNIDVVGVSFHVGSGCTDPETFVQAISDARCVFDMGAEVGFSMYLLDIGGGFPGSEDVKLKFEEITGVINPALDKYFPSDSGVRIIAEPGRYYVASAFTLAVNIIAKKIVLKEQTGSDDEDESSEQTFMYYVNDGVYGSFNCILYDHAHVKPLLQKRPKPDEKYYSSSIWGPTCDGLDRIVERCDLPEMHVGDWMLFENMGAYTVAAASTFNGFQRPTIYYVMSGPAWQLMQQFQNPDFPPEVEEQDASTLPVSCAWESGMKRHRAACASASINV
Procedure: ODC and AdoMetDC enzyme activities were determined using a standard assay known in the art. In brief, NB cells were washed twice with ice-cold PBS and harvested in 50 mM sodium phosphate buffer (pH 7.2), 0.1 mM EDTA, 2.5 mM DTT, supplemented with 1× protease inhibitor cocktail (Roche Molecular Biochemicals, Indianapolis, Ind.). […] Cells were lysed by three freeze/thaw cycles and cell lysates were prepared by centrifugation for 20 minutes at 14,000 rpm and 4° C. ODC activity was measured in a reaction mixture that contained 20 μM L-[1-^14C]ornithine (47.70 mCi/mmol; NEN Life Science Products, Boston, Mass.).

Row | Compound | most frequent side effects [1] | cell morphology [2] | cell morphology (FIG. 4b) (LAN-1 cells) | cell morphology (FIG. 4b) (NMB-7 cells) | ODC activity after preincubation of extracts (ODC)
1 | N=C(N)c1cccc2c1CC/C2=N\N=C(N)N [SAM486A, 4-amidinoindan-1-one 2′-amidinohydrazone] | nausea, vomiting, diarrhea, asthenia, abdominal pain, and flushing | no visible changes in cell morphology | – | – | –
2 | NCCC[C@](N)(C(=O)O)C(F)F [DFMO, α-difluoromethylornithine] | – | no visible changes in cell morphology | changed into spindle-like cells with neurite-like extensions | formed large polynucleate cell aggregates with only very short extensions | complete loss of ODC activity
